# Key:
# [1] = system: streptozocin diabetic rats; experiment: Quantitative MRI of the retina in diabetic rats; type: in vivo, SD rats
# Procedure: 7, issue 1. Glycated hemoglobin and retinal thickness ex vivo (histology) will also be measured in control, diabetic groups and D-Arg-2′,6′-Dmt-Lys-Phe-NH2 treatment groups.
# Diabetes is induced with intraperitoneal injection of streptozocin (60 mg/kg) within 5 minutes of its preparation in 0.01 M citrate buffer (pH 4.5) in male SD rats with body weights of approximately 200 g after overnight fast. Diabetes is verified 3 days later by the presence of plasma hyperglycemia (>300 mg/dl) and elevated urine volume (more than 60 ml/d) in nonfasted rats. Rat body weight and blood glucose levels are monitored weekly. Subtherapeutic levels of insulin (0-2 U neutral protamine Hagedorn insulin administered subcutaneously daily) is administered to maintain blood glucose levels between 450 and 550 mg/dl without urine ketones. Glycated hemoglobin is measured after 2 months of diabetes (Glyco-Tek affinity columns, kit 5351; Helena Laboratories, Beaumont, Tex.).
# Nine month old diabetic rats are treated with D-Arg-2′,6′-Dmt-Lys-Phe-NH2 by injection, either intraperitoneal (IP) or subcutaneous (SC), with 1, 5, or 10 mg/kg D-Arg-2′,6′-Dmt-Lys-Phe-NH2. Injections are once/day. After 7 days of treatment, the retinas of the rats in the treatment and control groups are evaluated.
# Male SD rats are examined by MRI by the methods of Berkowitz et al. Central retinal thickness at 2, 3, 4, 6, and 9 months after induction of diabetes is measured, and in age-matched non-diabetic controls. At day 7 after D-Arg-2′,6′-Dmt-Lys-Phe-NH2 treatment, rats are again evaluated via MRI according to the methods of Berkowitz et al.
# HTM cells = experiment: TMRM fluorescence (mitochondrial membrane potential), acute H2O2 injury, FACS, HTM cells; type: cell-based, human; settings: n=4
# From the text: Methods to measure mitochondrial membrane potential using TMRM useful in the studies of the present invention have been described by Andrea Rasola and Massimo Geuna, A flow cytometry assay simultaneously detects independent apoptotic parameters, Cytometry 45:151-157, 2001; Mitoprobe™ JC-1 Kit for Flow Cytometry, Molecular Probes, Invitrogen, USA.
# The mitochondrial membrane potential (Δψm) of HTM and GTM cells was investigated when those cells were exposed to hydrogen peroxide prior to administration of D-Arg-2′,6′-Dmt-Lys-Phe-NH2. First, the mitochondrial membrane potential was measured using confocal microscopy of cells labeled with tetramethylrhodamine methyl ester (TMRM, 500 nM×30 min) (FIG. 15). The mitochondrial membrane potential was also measured using flow cytometry (FIGS. 16-17) by labeling cells with the mitochondrion-selective probe tetramethylrhodamine methyl ester (TMRM, 500 nM×30 min).
# The effects of D-Arg-2′,6′-Dmt-Lys-Phe-NH2 at mitigating acute oxidative injury in GTM and HTM cells was investigated. […] The percentage of fluorescence intensity compared to GTM control in H2O2, D-Arg-2′,6′-Dmt-Lys-Phe-NH2 10^−6M, D-Arg-2′,6′-Dmt-Lys-Phe-NH2 10^−7M, D-Arg-2′,6′-Dmt-Lys-Phe-NH2 10^−8M were 35.2±2.12%, 56.2±4.04%, 50.3±4.46%, 47.5±2.82% respectively, n=4; the HTM groups were 37.4±0.725%, 57.7±1.80%, 50.6±3.06%, 49.4±2.27% respectively, n=4. ** means P<0.01 compared to GTM H2O2 group; * means P<0.05 compared to GTM H2O2 group; ▴ ▴ ▴ means P<0.001 compared to HTM H2O2 group.
# [2] = system: primary human retinal pigment epithelial (RPE) cells; experiment: Apoptosis of RPE cells induced by tBHP; type: cell-based; settings: 1 μM for 4 h + 250 μM tBHP for 24 h
# Procedure: FIG. 34A: control group; (Q2+Q4)%=1.27±0.3%; FIG. 34B: 250 μM tBHP for 24 h group; (Q2+Q4)%=15.7±0.6%; FIG. 34C: 1 μM D-Arg-2′,6′-Dmt-Lys-Phe-NH2 for 4 h+250 μM tBHP for 24 h group; (Q2+Q4)%=8.4±0.8%. FIG. 34D is a chart comparing the fluorescence ratio for the different groups. *P<0.05 C vs. B. FIG. 35 is a chart showing the MDA level induced by tBHP in 3 groups of RPE cells. (*P<0.05).
# 661W cells = experiment: tBHP-induced death of 661W cone cells; type: cell-based, mouse; settings: different doses
# Procedure: A cone cell specific line 661W was derived from a mouse retinal tumor. Methods useful in the present studies of 661W cells have been described previously. See generally, Gearóid Tuohy, Sophia Millington-Ward, Paul F. Kenna, Peter Humphries and G. Jane Farrar, Sensitivity of Photoreceptor-Derived Cell Line (661W) to Baculoviral p35, Z-VAD.FMK, and Fas-Associated Death Domain, Investigative Ophthalmology and Visual Science. 2002; 43:3583-3589. These cells were cultured to test the effects of the aromatic-cationic peptides of the invention in preventing or reducing oxidative damage in the cone cells (FIG. 27). First, it was shown that tBHP affected survival of 661W cells (FIG. 27A). Different doses of tBHP were administered to the cells for 3 h. Next, it was shown that different doses of D-Arg-2′,6′-Dmt-Lys-Phe-NH2 reduced tBHP-induced 661W cell death (FIG. 27B).
# GTM and HTM cells = experiment: Cell apoptosis induced by H2O2 (percentage of cells in Q2+Q4); type: cell-based, human; settings: FIG. 38
# From the text: FIG. 38A-38D are graphs showing cell apoptosis of control and D-Arg-2′,6′-Dmt-Lys-Phe-NH2(SS-31)-treated groups valued by percentage of cells in the Q2+Q4 quadrant.
# The percentage of intracellular ROS production compared to GTM control in GTM H2O2, D-Arg-2′,6′-Dmt-Lys-Phe-NH2 10^−6M, D-Arg-2′,6′-Dmt-Lys-Phe-NH2 10^−7M, D-Arg-2′,6′-Dmt-Lys-Phe-NH2 10^−8M groups were 146.0±2.27%, 84.5±8.75%, 102.0±5.69%, 133.0±5.17% respectively (n=3); the HTM groups were 153.0±3.46%, 79±2.39%, 91.8±3.49%, 129.0±8.24% respectively (n=4). P<0.001 GTM and HTM H2O2 Group compared to control; *** means P<0.001 compared to GTM H2O2 group; ▴ ▴ ▴ Means P<0.001 compared to HTM H2O2 group; ▴ ▴ means P<0.01 compared to HTM H2O2 group.
substance,measurement,setting,value
"D-Arg-2′,6′-Dmt-Lys-Phe-NH2",Apparent diffusion coefficient,[1]; 1 mg/kg IP or SC injection,N to N+
same,Intraretinal water content,[1]; 1 mg/kg IP or SC injection,N to N+
same,Retinal thickness,[1]; 1 mg/kg IP or SC injection,N to N+
same,Apparent diffusion coefficient,[1]; 5 mg/kg IP or SC injection,N to N+
same,Intraretinal water content,[1]; 5 mg/kg IP or SC injection,N to N+
same,Retinal thickness,[1]; 5 mg/kg IP or SC injection,N to N+
same,Apparent diffusion coefficient,[1]; 10 mg/kg IP or SC injection,N to N+
same,Intraretinal water content,[1]; 10 mg/kg IP or SC injection,N to N+
same,Retinal thickness,[1]; 10 mg/kg IP or SC injection,N to N+
same,percentage of TMRM fluorescence intensity compared to control,HTM cells; 10^−6M,57.7±1.80%
same,percentage of TMRM fluorescence intensity compared to control,HTM cells; 10^−7M,50.6±3.06%
same,percentage of TMRM fluorescence intensity compared to control,HTM cells; 10^−8M,49.4±2.27%
same,(Q2+Q4)% cell apoptosis,[2],8.4±0.8%
same,tBHP-induced 661W cell death,661W cells,reduced
same,amount of cell apoptosis induced by H2O2,GTM and HTM cells,reduced
